What was measured:
Type in all cases: in vivo
[1] = test system: potato leafhopper (Empoasca fabae); experiment: whole plant or invertebrate; conditions: 144 h, 6 days, Soleil bean plant, very good to excellent levels of control efficacy; for mortality at 10 ppm: sprayed at 10 ppm; for mortality at 50 ppm: sprayed at 50 ppm
Protocol: For evaluating control of potato leafhopper (Empoasca fabae) through contact and/or systemic means, the test unit consisted of a small open container with a 5-6-day-old Soleil bean plant (primary leaves emerged) inside. White sand was added to the top of the soil and one of the primary leaves was excised prior to application.
Test compounds were formulated and sprayed at 50 ppm and/or 10 ppm, and the tests were replicated three times as described for Test A. After spraying, the test units were allowed to dry for 1 h before they were post-infested with 5 potato leafhoppers (18-21-day-old adults). A black, screened cap was placed on the top of each test unit, and the test units were held for 6 days in a growth chamber at 24° C. and 70% relative humidity. Each test unit was then visually assessed for insect mortality.

[2] = test system: green peach aphid (Myzus persicae); experiment: whole plant or invertebrate; conditions: 144 h, 6 days, radish plant; for mortality at 50 ppm: sprayed at 50 ppm
From the text: For evaluating control of green peach aphid (Myzus persicae) through contact and/or systemic means, the test unit consisted of a small open container with a 12-15-day-old radish plant inside. This was pre-infested by placing on a leaf of the test plant 30-40 aphids on a piece of leaf excised from a culture plant (cut-leaf method). The aphids moved onto the test plant as the leaf piece desiccated. After pre-infestation, the soil of the test unit was covered with a layer of sand.
Test compounds were formulated and sprayed at 50 ppm and/or 10 ppm as described for Test A. The applications were replicated three times. After spraying of the formulated test compound, each test unit was allowed to dry for 1 h and then a black, screened cap was placed on top. The test units were held for 6 days in a growth chamber at 19-21° C. and 50-70% relative humidity. Each test unit was then visually assessed for insect mortality.

[3] = test system: corn planthopper (Peregrinus maidis); experiment: whole plant or invertebrate; conditions: 144 h, 6 days, maize plant, very good to excellent levels of control efficacy; for mortality at 10 ppm: sprayed at 10 ppm; for mortality at 50 ppm: sprayed at 50 ppm
Protocol: For evaluating control of corn planthopper (Peregrinus maidis) through contact and/or systemic means, the test unit consisted of a small open container with a 3-4-day-old maize plant (spike) inside. White sand was added to the top of the soil prior to application. Test compounds were formulated and sprayed at 50 ppm and/or 10 ppm, and replicated three times as described for Test A. After spraying, the test units were allowed to dry for 1 h before they were post-infested with ˜15-20 nymphs (18 to 21 day old) by sprinkling them onto the sand with a salt shaker. A black, screened cap was placed on the top of each test unit, and the test units were held for 6 days in a growth chamber at 22-24° C. and 50-70% relative humidity. Each test unit was then visually assessed for insect mortality.

[4] = test system: cotton melon aphid (Aphis gossypii); experiment: Test D: control of cotton melon aphid on cotton plant, contact and/or systemic; conditions: for mortality at 50 ppm: sprayed at 50 ppm
From the text: For evaluating control of cotton melon aphid (Aphis gossypii) through contact and/or systemic means, the test unit consisted of a small open container with a 6-7-day-old cotton plant inside. This was pre-infested with 30-40 insects on a piece of leaf according to the cut-leaf method described for Test C, and the soil of the test unit was covered with a layer of sand.
Test compounds were formulated and sprayed at 50 ppm and/or 10 ppm as described for Test C. The applications were replicated three times. After spraying, the test units were maintained in a growth chamber and then visually rated as described for Test C.

CCn1ccn2c(=O)c(-c3ccccc3)c([O-])[n+](Cc3cnc(Cl)s3)c12 [Compound 333]
≥ 80%: mortality at 10 ppm [1] | mortality at 50 ppm [1] | mortality at 10 ppm ([2]; sprayed at 10 ppm) | mortality at 50 ppm [2] | mortality at 10 ppm [3] | mortality at 50 ppm [3] | mortality at 50 ppm [4]

CCn1ccn2c(=O)c(-c3cccc(C(F)(F)F)c3)c([O-])[n+](Cc3cnc(Cl)s3)c12 [Compound 340]
≥ 80%: mortality at 50 ppm [1] | mortality at 50 ppm [2] | mortality at 10 ppm [3] | mortality at 50 ppm [3] | mortality at 10 ppm ([4]; sprayed at 10 ppm) | mortality at 50 ppm [4]

O=c1c(-c2ccccc2)c([O-])[n+](Cc2cnc(Cl)s2)c2c3ccsc3ccn12 [Compound 356]
≥ 80%: mortality at 50 ppm [1]

O=c1c(-c2ccccc2F)c([O-])[n+](Cc2cnc(Cl)s2)c2c3ccsc3ccn12 [Compound 357]
≥ 80%: mortality at 10 ppm [1] | mortality at 50 ppm [1] | mortality at 50 ppm [2]
